In brackets after ≈: the same amount, converted by molar mass. Where two headings read alike, the source gives them in different places.
Legend:
[1] = tested on: M. avium paratuberculosis ATCC19698; test: In vitro antimycobacterial evaluation (alamarBlue); assay type: cell-based; conditions: Mycobacterium avium, 264 h, read-out: MIC/IC90 M.avium paratuberculosis
[2] = tested on: M. kansasii CIT11/06; test: In vitro antimycobacterial evaluation (alamarBlue); assay type: cell-based; conditions: Mycobacterium kansasii, read-out: MIC/IC90 M. kansasii
[3] = tested on: photosynthetic electron transport (PET) in spinach chloroplasts; test: Inhibition of photosynthetic electron transport (PET) in spinach chloroplasts; assay type: biochemical, Spinacia oleracea L.; conditions: photoreduction of DCPIP, pH 7.2
Description: Chloroplasts were prepared from spinach (Spinacia oleracea L.) according to Masarovicova and Kralova. The inhibition of photosynthetic electron transport (PET) in spinach chloroplasts was determined spectrophotometrically (Genesys 6, Thermo Scientific, USA), using an artificial electron acceptor 2,6-dichlorophenol-indophenol (DCIPP) according to Kralova et al., and the rate of photosynthetic electron transport was monitored as a photoreduction of DCPIP. The measurements were carried out in phosphate buffer (0.02 mol/L, pH 7.2) containing sucrose (0.4 mol/L), MgCl2 (0.005 mol/L) and NaCl (0.015 mol/L). The chlorophyll content was 30 mg/L in these experiments and the samples were irradiated (~100 W/m^2 with 10 cm distance) with a halogen lamp (250 W) using a 4 cm water filter to prevent warming of the samples (suspension temperature 22 °C). The studied compounds were dissolved in DMSO due to their limited water solubility. […] The inhibitory efficiency of the studied compounds was expressed by IC50 values, i.e., by molar concentration of the compounds causing 50% decrease in the oxygen evolution rate relative to the untreated control.

[4] = tested on: M. avium complex CIT19/06; test: In vitro antimycobacterial evaluation (alamarBlue); assay type: cell-based; conditions: Mycobacterium avium, 120 h, read-out: MIC/IC90 M. avium complex
[5] = tested on: human monocytic leukemia THP-1 cells; conditions: for lethal effect on THP-1 cells at the highest dose achieved in the medium: 100 µmol/L; for LD50: human, 24 h
[6] = tested on: M. tuberculosis and other atypical mycobacterial strains; test: In vitro antimycobacterial screening, results in words; assay type: cell-based, Mycobacterium sp.; conditions: low solubility, precipitation in test media
[7] = tested on: human monocytic leukemia THP-1 cells; conditions: assessed in this line formerly; cited from earlier work

Compound	MIC ([1]; ATCC19698, 11 days)	MIC ([2]; 120 h, CIT11/06, 5 days)	IC50 [3]	melting point	MIC ([4]; CIT19/06, 5 days)	MIC [4]	further results
O=C(NC1CCCCC1)c1ccc2ccccc2n1 [Compound 6, N-Cyclohexylquinoline-2-carboxamide]	520 µM (≈ 132 µg/mL)	520 µM (≈ 132 µg/mL)	1040 µM	98 to 99 °C	520 µM (≈ 132 µg/mL)		
O=C(NCCc1ccccc1)c1ccc2ccccc2n1 [Compound 11, N-(2-Phenylethyl)quinoline-2-carboxamide]	905 µM (≈ 250 µg/mL)	452 µM (≈ 125 µg/mL)			452 µM (≈ 125 µg/mL)		lethal effect on THP-1 cells at the highest dose achieved in the medium [5]: did not lead to the 100% lethal effect; LD50 [5]: >100 µmol/L
O=C(NC1CCCC1)c1ccc2ccccc2n1 [Compound 5, N-Cyclopentylquinoline-2-carboxamide]			762 µM	63 to 64 °C		491 µM (≈ 118 µg/mL)	MIC [1]: 491 µM (≈ 118 µg/mL); MIC ([2]; CIT11/06, 120 h): 491 µM (≈ 118 µg/mL)
COc1ccccc1NC(=O)c1ccc2ccccc2c1 [Compound 32a, N-(2-Methoxyphenyl)-2-naphthamide]	216 µM (≈ 59.9 µg/mL)	451 µM (≈ 125 µg/mL)	763 µM	82 °C	451 µM (≈ 125 µg/mL)		
Cc1cccc(NC(=O)c2ccc3ccccc3n2)c1 [Compound 14b, N-(3-Methylphenyl)quinoline-2-carboxamide]	939 µM (≈ 246 µg/mL)		101 µM	82 to 83 °C		469 µM (≈ 123 µg/mL)	MIC ([2]; CIT11/06, 120 h): 469 µM (≈ 123 µg/mL)
O=C(NC1CCCCCC1)c1ccc2ccccc2n1 [Compound 7, N-Cycloheptylquinoline-2-carboxamide]	223 µM (≈ 59.8 µg/mL)	466 µM (≈ 125 µg/mL)			466 µM (≈ 125 µg/mL)		LD50 [5]: 62 ± 4.5 µmol/L
O=C(NC1CCCCCCC1)c1ccc2ccccc2n1 [Compound 8, N-Cyclooctylquinoline-2-carboxamide]			415 µM	72 to 73 °C			antimycobacterial activity [6]: no activity
CCCCCCCCCCCCNC(=O)c1ccc2ccccc2n1 [Compound 2, N-Dodecylquinoline-2-carboxamide]	734 µM (≈ 250 µg/mL)	734 µM (≈ 250 µg/mL)	573 µM			367 µM (≈ 125 µg/mL)	
CC[C@@]1(O)C(=O)OCc2c1cc1n(c2=O)Cc2cc3ccccc3nc2-1 [camptothecin]							LD50 [7]: 0.16 ± 0.07 µmol/L
O=C(c1ccc2ccccc2c1)N1CCCC1 [Compound 22, 1-(2-Naphthoyl)pyrrolidine]	111 µM (≈ 25 µg/mL)	111 µM (≈ 25 µg/mL)				554 µM (≈ 125 µg/mL)	lethal effect on THP-1 cells at the highest dose achieved in the medium [5]: did not lead to the 100% lethal effect; LD50 [5]: >100 µmol/L
O=C(Nc1ccccc1)c1ccc2ccccc2n1 [Compound 9, N-Phenylquinoline-2-carboxamide]			85.1 µM				antimycobacterial activity [6]: non-active
NC(=O)c1cnccn1 [PZA, pyrazinamide, reference compound]						> 812 µM	MIC [1]: > 812 µM; MIC ([2]; CIT11/06, 120 h): > 812 µM
O=C(c1ccc2ccccc2n1)N1CCCC1 [Compound 3, 2-(Pyrrolidin-1-ylcarbonyl)quinoline]	111 µM (≈ 25.1 µg/mL)	111 µM (≈ 25.1 µg/mL)	1600 µM			552 µM (≈ 125 µg/mL)	lethal effect on THP-1 cells at the highest dose achieved in the medium [5]: did not lead to the 100% lethal effect; LD50 [5]: >100 µmol/L
CC(C)NC(=O)c1ccc2ccccc2n1 [Compound 1, N-Isopropylquinoline-2-carboxamide]	1170 µM (≈ 250 µg/mL)	1170 µM (≈ 250 µg/mL)		75 to 76 °C	583 µM (≈ 125 µg/mL)		
NNC(=O)c1ccncc1 [INH, isoniazid, reference compound]		< 72.9 µM			< 72.9 µM		MIC [1]: > 729 µM
O=C(Nc1cccc(Br)c1)c1ccc2ccccc2c1 [Compound 36b, N-(3-Bromophenyl)-2-naphthamide]			103 µM	193 °C			

Source: paper PMC6268315, “Investigating the Spectrum of Biological Activity of Substituted Quinoline-2-Carboxamides and Their Isosteres ^†” (Molecules, 2012)
